Source: patent publication US20170190671A1, “BIS(ARYL)CATECHOL DERIVATIVES AS HERBICIDES” (E I DU PONT DE NEMOURS AND COMPANY, priority 2014, published 2017)

Experiments:
[1] = test system: Italian ryegrass (Lolium multiflorum); test: Test C postemergence; assay type: in vivo; conditions: Lolium multiflorum, post-emergence, 336 h, Postemergence, scale 0 to 100, read-out: Plant response rating, Ryegrass, Italian
In short: (§1)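 Seeded loam-sand soil (preemergence) or young potted plants of 2-18 cm (postemergence) received test chemical formulated with surfactant in a non-phytotoxic solvent. Pots were kept in the greenhouse for 13-15 days before a visual 0-100 control rating relative to controls.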

[2] = test system: barnyardgrass (Echinochloa crus-galli); test: Test C postemergence; assay type: in vivo; conditions: Echinochloa crus-galli, post-emergence, Postemergence, scale 0 to 100, read-out: Plant response rating, Barnyardgrass
In short: as §1

[3] = test system: corn (Zea mays); test: Test C postemergence; assay type: in vivo; conditions: Zea mays, post-emergence, 336 h, Postemergence, scale 0 to 100
In short: as §1

[4] = test system: galium (catchweed bedstraw, Galium aparine); test: Test C postemergence; assay type: in vivo; conditions: Galium, post-emergence, 336 h, Postemergence, scale 0 to 100, read-out: Plant response rating, Galium
In short: as §1

[5] = test system: johnsongrass (Sorghum halepense); test: Test C postemergence; assay type: in vivo; conditions: Sorghum halepense, post-emergence, 336 h, Postemergence, scale 0 to 100, read-out: Plant response rating, Johnsongrass
In short: as §1

[6] = test system: kochia (Kochia scoparia); test: Test C postemergence; assay type: in vivo; conditions: Bassia scoparia, post-emergence, Postemergence, scale 0 to 100, read-out: Plant response rating, Kochia
In short: as §1

[7] = test system: large (Lg) crabgrass (Digitaria sanguinalis); test: Test C postemergence; assay type: in vivo; conditions: Digitaria sanguinalis, post-emergence, 336 h, Postemergence, scale 0 to 100, read-out: Plant response rating, Crabgrass, Large
In short: as §1

[8] = test system: morningglory (Ipomoea coccinea); test: Test C postemergence; assay type: in vivo; conditions: Ipomoea, post-emergence, 336 h, Postemergence, scale 0 to 100, read-out: Plant response rating, Morningglory
In short: as §1

[9] = test system: oilseed rape (Brassica napus); test: Test C postemergence; assay type: in vivo; conditions: Brassica napus, post-emergence, Postemergence, scale 0 to 100, read-out: Plant response rating, Oilseed Rape
In short: as §1

[10] = test system: pigweed (Amaranthus retroflexus); test: Test C postemergence; assay type: in vivo; conditions: Amaranthus retroflexus, post-emergence, 336 h, Postemergence, scale 0 to 100, read-out: Plant response rating, Pigweed
In short: as §1

[11] = test system: ragweed (common ragweed, Ambrosia elatior); test: Test C postemergence; assay type: in vivo; conditions: Ambrosia artemisiifolia, post-emergence, 336 h, Postemergence, scale 0 to 100, read-out: Plant response rating, Ragweed
In short: as §1

[12] = test system: soybean (Glycine max); test: Test C postemergence; assay type: in vivo; conditions: Glycine max, post-emergence, Postemergence, scale 0 to 100, read-out: Plant response rating, Soybean
In short: as §1

[13] = test system: waterhemp (common waterhemp, Amaranthus rudis); test: Test C postemergence; assay type: in vivo; conditions: Amaranthus tuberculatus, post-emergence, Postemergence, scale 0 to 100, read-out: Plant response rating, Waterhemp
In short: as §1

[14] = test system: wild oat (Avena fatua); test: Test C postemergence; assay type: in vivo; conditions: Avena fatua, post-emergence, Postemergence, scale 0 to 100, read-out: Plant response rating, Oat, Wild
In short: as §1

[15] = test system: winter wheat (Triticum aestivum); test: Test C postemergence; assay type: in vivo; conditions: Triticum aestivum, post-emergence, 336 h, Postemergence, scale 0 to 100, read-out: Plant response rating, Wheat
In short: as §1

Fc1ccc(F)c(Oc2ncc(Cl)cn2)c1Oc1ncc(Cl)cn1 [Compound 34, 2,2′-[(3,6-difluoro-1,2-phenylene)bis(oxy)]bis[5-chloropyrimidine]]
pest or weed control at 31 g/ha ([1]; 31 g ai/ha): 0% | pest or weed control at 62 g/ha ([1]; 62 g ai/ha): 0% | pest or weed control at 125 g/ha ([1]; 125 g ai/ha): 0% | pest or weed control at 16 g/ha ([2]; 16 g ai/ha): 5% | pest or weed control at 31 g/ha ([2]; 31 g ai/ha): 5% | pest or weed control at 62 g/ha ([2]; 62 g ai/ha): 10% | pest or weed control at 125 g/ha ([2]; 125 g ai/ha): 10% | Corn plant response rating (crop injury, 0 = no effect, 100 = complete kill) at 16 g/ha ([3]; 16 g ai/ha): 5% | Corn plant response rating (crop injury, 0 = no effect, 100 = complete kill) at 31 g/ha ([3]; 31 g ai/ha): 5% | Corn plant response rating (crop injury, 0 = no effect, 100 = complete kill) at 62 g/ha ([3]; 62 g ai/ha): 5% | Corn plant response rating (crop injury, 0 = no effect, 100 = complete kill) at 125 g/ha ([3]; 125 g ai/ha): 5% | pest or weed control at 16 g/ha ([4]; 16 g ai/ha): 80% | pest or weed control at 31 g/ha ([4]; 31 g ai/ha): 80% | pest or weed control at 62 g/ha ([4]; 62 g ai/ha): 85% | pest or weed control at 125 g/ha ([4]; 125 g ai/ha): 85% | pest or weed control at 16 g/ha ([5]; 16 g ai/ha): 5% | pest or weed control at 31 g/ha ([5]; 31 g ai/ha): 5% | pest or weed control at 62 g/ha ([5]; 62 g ai/ha): 10% | pest or weed control at 125 g/ha ([5]; 125 g ai/ha): 10% | pest or weed control at 16 g/ha ([6]; 16 g ai/ha): 60% | pest or weed control at 31 g/ha ([6]; 31 g ai/ha): 60% | pest or weed control at 62 g/ha ([6]; 62 g ai/ha): 90% | pest or weed control at 125 g/ha ([6]; 125 g ai/ha): 90% | pest or weed control at 16 g/ha ([7]; 16 g ai/ha): 0% | pest or weed control at 31 g/ha ([7]; 31 g ai/ha): 0% | pest or weed control at 62 g/ha ([7]; 62 g ai/ha): 5% | pest or weed control at 125 g/ha ([7]; 125 g ai/ha): 5% | pest or weed control at 31 g/ha ([8]; 31 g ai/ha): 95% | pest or weed control at 62 g/ha ([8]; 62 g ai/ha): 90% | pest or weed control at 125 g/ha ([8]; 125 g ai/ha): 95% | plant injury at 31 g/ha ([9]; 31 g ai/ha): 50% | plant injury at 62 g/ha ([9]; 62 g ai/ha): 70% | plant injury at 125 g/ha ([9]; 125 g ai/ha): 70% | pest or weed control at 31 g/ha ([10]; 31 g ai/ha): 80% | pest or weed control at 62 g/ha ([10]; 62 g ai/ha): 90% | pest or weed control at 125 g/ha ([10]; 125 g ai/ha): 90% | pest or weed control at 31 g/ha ([11]; 31 g ai/ha): 50% | pest or weed control at 62 g/ha ([11]; 62 g ai/ha): 60% | pest or weed control at 125 g/ha ([11]; 125 g ai/ha): 60% | plant injury at 31 g/ha ([12]; 31 g ai/ha): 70% | plant injury at 62 g/ha ([12]; 62 g ai/ha): 85% | plant injury at 125 g/ha ([12]; 125 g ai/ha): 40% | pest or weed control at 31 g/ha ([13]; 31 g ai/ha): 70% | pest or weed control at 62 g/ha ([13]; 62 g ai/ha): 80% | pest or weed control at 125 g/ha ([13]; 125 g ai/ha): 90% | pest or weed control at 31 g/ha ([14]; 31 g ai/ha): 0% | pest or weed control at 62 g/ha ([14]; 62 g ai/ha): 5% | pest or weed control at 125 g/ha ([14]; 125 g ai/ha): 10% | plant injury at 31 g/ha ([15]; 31 g ai/ha): 0% | plant injury at 62 g/ha ([15]; 62 g ai/ha): 0% | plant injury at 125 g/ha ([15]; 125 g ai/ha): 0% | melting point: 158 to 161 °C
